Reference: patent US20100261711A1, “SELECTIVE ANTICONVULSANT AGENTS AND THEIR USES” (WiSys Technology Foundation, priority 2009, published 2010)
Where two headings read alike, the source gives them in different places.

Key:
[1] = tested on: MES-induced seizures; settings: Mice IP; from Antiepileptic Drugs, 5th ed., Levy et al., 2002; cited from earlier work
[2] = tested on: Metrazol-induced clonic seizures; settings: Rat PO; from Antiepileptic Drugs, 5th ed., Levy et al., 2002; cited from earlier work
[3] = Toxicity (TOX), rotorod procedure, mice; format: in vivo; settings: mouse, in vivo; IP route in mice (footnote of Table 10); read-out: TD50
Method: The benzodiazepine derivative compounds selective for GABAa receptor subunits were tested for the ability to suppress seizures in several standard rat and mouse models of epilepsy. […] The standard models incorporated into anticonvulsant screening include the maximal electroshock test (MES), the subcutaneous Metrazol test (scMet), and evaluations of toxicity (TOX). The data for each condition is presented as a ratio of either the number of animals protected or toxic (loss of locomotor activity) over the number of animals tested at a given time point and dose.
To assess a compound's undesirable side effects (toxicity), animals are monitored for overt signs of impaired neurological or muscular function. […] When a mouse is placed on a rod that rotates at a speed of 6 rpm, the animal can maintain its equilibrium for long periods of time. The animal is considered toxic if it falls off this rotating rod three times during a 1-min period. In rats, minimal motor deficit is indicated by ataxia, which is manifested by an abnormal, uncoordinated gait. Rats used for evaluating toxicity are examined before the test drug is administered, since individual animals may have peculiarities in gait, equilibrium, placing response, etc., which might be attributed erroneously to the test substance.

[4] = tested on: Metrazol-induced clonic seizures; settings: Mice IP; from Antiepileptic Drugs, 5th ed., Levy et al., 2002; cited from earlier work
[5] = tested on: MES-induced seizures; settings: Rat PO; from Antiepileptic Drugs, 5th ed., Levy et al., 2002; cited from earlier work
[6] = tested on: 6 Hz psychomotor seizure; assay: Minimal clonic seizure (6 Hz) test; format: in vivo; settings: Mice IP, 32 mA
Source text: Like the maximal electroshock (MES) test, the minimal clonic seizure (6 Hz) test is used to assess a compound's efficacy against electrically-induced seizures but uses a lower frequency (6 Hz) and longer duration of stimulation (3 s). Test compounds are pre-administered to mice via ip injection. […] Untreated mice will display seizures characterized by a minimal clonic phase followed by stereotyped, automatistic behaviors described originally as being similar to the aura of human subjects with partial seizures. Animals not displaying this behavior are considered protected (Table 10).

[7] = tested on: minimal muscular or neurological impairment; settings: Mice IP; from Antiepileptic Drugs, 5th ed., Levy et al., 2002; cited from earlier work
[8] = tested on: minimal motor deficit (ataxia, abnormal gait); settings: Rat PO; from Antiepileptic Drugs, 5th ed., Levy et al., 2002; cited from earlier work

NC(=O)N1c2ccccc2C=Cc2ccccc21 [Carbamazepine]
ED50 MES [1]: 7.81 mg/kg
ED50 scMet [2]: >250 mg/kg
TD50 [3]: 41 mg/kg
ED50 scMet [4]: >50 mg/kg
ED50 MES [5]: 5.35 mg/kg
ED50 ([6]; Mus musculus, ip, read-out: ED50 32 mA (6 Hz test)): > 40 mg/kg

O=C1CN=C(c2ccccc2Cl)c2cc([N+](=O)[O-])ccc2N1 [Clonazepan]
ED50 MES [1]: 25.6 mg/kg
ED50 scMet [2]: 0.61 mg/kg
ED50 scMet [4]: 0.02 mg/kg
ED50 MES [5]: 7.86 mg/kg
TD50 TOX [7]: 0.26 mg/kg
TD50 TOX [8]: 2.38 mg/kg
ED50 32 mA (6 Hz test) [6]: 0.04 mg/kg
